Earlier results as cited in patent publication US11318122B2, “Pharmaceutical combination and its use for treating synucleinopathties” (CHASE THERAPEUTICS CORPORATION, priority 2017, dated 2022).

Legend:
[1] = test system: 6-OHDA (6-hydroxydopamine)-induced damage; details: toxin-induced model of PD
MPTP-induced damage = details: toxin-induced model of PD
[2] = test system: extracellular concentrations of norepinephrine and dopamine; details: large doses, rodents, acute systemic administration
[3] = 5 mg/day of pramipexole
synuclein = synuclein (Homo sapiens, UniProt P37840)
[4] = molecular target: human wild-type alpha-synuclein (Homo sapiens, UniProt P37840); details: by H2O2 plus cytochrome c
[5] = molecular target: alpha-synuclein in human neuroblastoma SH5Y cells (Homo sapiens, UniProt P37840)
[6] = doses approved for the treatment of motor symptoms of PD; 535 PD patients

CNCCC(Oc1ccc(C(F)(F)F)cc1)c1ccccc1 (stereo not drawn) [fluoxetine, 1-methylamino-3-phenyl-3-[4-(trifluoromethyl)phenoxy]propane]
protection against 6-OHDA-induced damage [1]: can protect | protection against MPTP-induced damage (MPTP-induced damage): can protect | extracellular concentrations of norepinephrine and dopamine [2]: significant increase

CCCN[C@H]1CCc2nc(N)sc2C1 [pramipexole, (S)-6-propylamino-4,5,6,7-tetrahydro-1,3-benzothiazole-2-amine]
nausea [3]: 76 % of patients | vomiting [3]: 39 % of patients | patients not able to complete the study ([3]; presumably because of intolerable GI adverse events): 36 % of patients | synuclein oligomer formation in vitro (synuclein): diminishes synuclein oligomer formation | toxic effects of rotenone on dopaminergic neurons (dopaminergic neurons; mouse PD model): inhibits the toxic effects of rotenone | immunoreactivity for alpha-synuclein (dopaminergic neurons; rotenone mouse PD model): reducing immunoreactivity | in vitro oligomerization of human wild-type alpha-synuclein [4]: decreases the in vitro oligomerization | aggregation of alpha-synuclein [5]: inhibit the aggregation | neuroprotective (disease modifying) activity [6]: failed to evidence neuroprotective (i.e., disease modifying) activity
